Data as given in ChEMBL document CHEMBL1201862, “PubChem BioAssay data set” (2004).
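Cultured in 96-well plates, cells were exposed to test compound for 48 hours across five concentrations. GI50: concentration for 50% inhibition of growth.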 The source made the active and inactive calls. No stated cut-off is given here; in the data, active = GI50 up to about 1.1 µM and inactive = higher.

Tests used:
Experiment in all cases: NCI-60 cell line screen, 48 h
[1] = test system: HL-60
[2] = test system: HOP-62
[3] = test system: TK-10
[4] = test system: 786-0
[5] = test system: A498
[6] = test system: HCC 2998
[7] = test system: OVCAR-5
[8] = test system: HT-29
[9] = test system: K562
[10] = test system: CAKI-1
[11] = test system: MOLT-4
[12] = test system: M14
[13] = test system: SF-295
[14] = test system: UACC-62
[15] = test system: Malme-3M
[16] = test system: SR
[17] = test system: UO-31
[18] = test system: COLO 205
[19] = test system: IGROV-1
[20] = test system: SNB-75
[21] = test system: HOP-92
[22] = test system: MDA-MB-435
[23] = test system: SK-OV-3
[24] = test system: SK-MEL-5
[25] = test system: NCI/ADR-RES
[26] = test system: CCRF-CEM
[27] = test system: NCI-H226
[28] = test system: NCI-H522
[29] = test system: SN12C
[30] = test system: DU-145
[31] = test system: LOX IMVI
[32] = test system: KM12
[33] = test system: SNB-19
[34] = test system: ACHN
[35] = test system: SK-MEL-2
[36] = test system: BT-549
[37] = test system: Hs-578T
[38] = test system: A549
[39] = test system: HCT-116
[40] = test system: MDA-N
[41] = test system: RXF 393
[42] = test system: SF-539
[43] = test system: OVCAR-3
[44] = test system: OVCAR-8
[45] = test system: NCI-H23
[46] = test system: SW-620
[47] = test system: T47D
[48] = test system: UACC-257
[49] = test system: MCF7
[50] = test system: MDA-MB-231
[51] = test system: EKVX
[52] = test system: RPMI-8226
[53] = test system: SF-268
[54] = test system: HCT-15

## Cc1ccc2[nH]c3[nH]c(=S)[nH]c(=O)c3c2c1
[1]
  GI50: > 100 µM (inactive)
[2]
  GI50: > 100 µM (inactive)
[3]
  GI50: > 100 µM (inactive)
[4]
  GI50: > 100 µM (inactive)
[5]
  GI50: > 100 µM (inactive)
[6]
  GI50: > 100 µM (inactive)
[7]
  GI50: > 100 µM (inactive)
[8]
  GI50: > 100 µM (inactive)
[9]
  GI50: 96.4 µM (inactive)
[10]
  GI50: > 100 µM (inactive)
[11]
  GI50: 97.5 µM (inactive)
[12]
  GI50: > 100 µM (inactive)
[13]
  GI50: > 100 µM (inactive)
[14]
  GI50: > 100 µM (inactive)
[15]
  GI50: > 100 µM (inactive)
[16]
  GI50: > 100 µM (inactive)
[17]
  GI50: > 100 µM (inactive)
[18]
  GI50: > 100 µM (inactive)
[19]
  GI50: > 100 µM (inactive)
[20]
  GI50: 40 µM (inactive)
[21]
  GI50: > 100 µM (inactive)
[22]
  GI50: > 100 µM (inactive)
[23]
  GI50: > 100 µM (inactive)
[24]
  GI50: > 100 µM (inactive)
[25]
  GI50: > 100 µM (inactive)
[26]
  GI50: > 100 µM (inactive)
[27]
  GI50: > 100 µM (inactive)
[28]
  GI50: > 100 µM (inactive)
[29]
  GI50: > 100 µM (inactive)
[30]
  GI50: > 100 µM (inactive)
[31]
  GI50: > 100 µM (inactive)
[32]
  GI50: > 100 µM (inactive)
[33]
  GI50: > 100 µM (inactive)
[34]
  GI50: > 100 µM (inactive)
[35]
  GI50: > 100 µM (inactive)
[36]
  GI50: > 100 µM (inactive)
[37]
  GI50: > 100 µM (inactive)
[38]
  GI50: > 100 µM (inactive)
[39]
  GI50: > 100 µM (inactive)
[40]
  GI50: > 100 µM (inactive)
[41]
  GI50: > 100 µM (inactive)
[42]
  GI50: > 100 µM (inactive)
[43]
  GI50: 72.9 µM (inactive)
[44]
  GI50: > 100 µM (inactive)
[45]
  GI50: > 100 µM (inactive)
[46]
  GI50: > 100 µM (inactive)
[47]
  GI50: > 100 µM (inactive)
[48]
  GI50: > 100 µM (inactive)
[49]
  GI50: > 100 µM (inactive)
[50]
  GI50: > 100 µM (inactive)
[51]
  GI50: > 100 µM (inactive)
[52]
  GI50: 72.8 µM (inactive)
[53]
  GI50: > 100 µM (inactive)
[54]
  GI50: > 100 µM
